Measured values reported in patent publication US20220251081A1, “HETEROBICYCLIC INHIBITORS OF MAT2A AND METHODS OF USE FOR TREATING CANCER” (priority 2019, published 2022).

What follows are compounds tested against T1, MAT2A homodimer (Homo sapiens, UniProt P31153) (assay: Biochemical assay: inhibition of recombinant MAT2A homodimer (phosphate release, PiColorLock Gold)). Conditions: MAT2A IC50 score; read-out: Enzyme Inhibition.
T1 construct: inferred from Ni sepharose purification and imidazole elution; made in house; host or cells: Sf9 insect cells, recombinant baculovirus (Bac to Bac, pFASTBAC1 vector)
Procedure: Mat2A protein was expressed by recombinant baculovirus in SF9 infected cells using the Bac to Bac system cloned into the pFASTBAC1 vector (Invitrogen, Carlsbad, Calif.). Recombinant MAT2A was isolated from the cell lysate of 150 g of infected cells using HP Ni sepharose column chromatography. Recombinant MAT2A homodimer was eluted with 250 and 500 mM imidazole, and fractions containing MAT2A were identified by sodium dodecyl sulfate polyacrylamide gel electrophoresis and pooled.
For determination of the inhibitory potency of compounds against the MAT2A homodimer, protein was diluted to 4 μg/mL in assay buffer (50 mM Tris, pH 8.0, 50 mM KCl, 15 mM MgCl2, 0.3 mM EDTA, 0.005% [w/v] bovine serum albumin [BSA]). Test compound was prepared in 100% dimethyl sulfoxide (DMSO) at 50× the desired final concentration. A 1 μL volume of compound dilution was added to 40 μL of enzyme dilution and the mixture was allowed to equilibrate for 60 minutes at 25° C. The enzymatic assay was initiated by the addition of 10 μL of substrate mix (500 μM ATP, pH 7.0, 40 μM L-methionine in 1× assay buffer), and the mixture was incubated for a further 60 minutes at 25° C. The reaction was halted and the liberated phosphate released by the enzyme in stoichiometric amounts by the production of S-adenosyl methionine (SAM) was measured using the PiColorLock Gold kit (Innova Biosciences, UK). Absolute product amounts were determined by comparison to a standard curve of potassium phosphate buffer, pH 8.0.

T1 sequence (P31153 whole entry): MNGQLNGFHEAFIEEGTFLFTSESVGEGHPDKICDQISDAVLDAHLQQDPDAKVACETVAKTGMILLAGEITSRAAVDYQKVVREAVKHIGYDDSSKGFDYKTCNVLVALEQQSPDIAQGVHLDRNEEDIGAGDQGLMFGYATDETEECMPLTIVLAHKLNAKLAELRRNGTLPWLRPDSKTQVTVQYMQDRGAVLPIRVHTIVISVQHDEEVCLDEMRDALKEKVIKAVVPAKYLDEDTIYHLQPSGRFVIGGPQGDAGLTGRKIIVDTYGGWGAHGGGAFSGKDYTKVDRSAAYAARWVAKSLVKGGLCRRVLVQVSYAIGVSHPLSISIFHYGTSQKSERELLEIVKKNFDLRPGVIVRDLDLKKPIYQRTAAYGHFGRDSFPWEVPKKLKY

Row | IC50 [nM] | Structure (SMILES)
1 | < 100 | COc1ccc(-c2cc3cnc(NCC(F)(F)F)nc3n(-c3ccc(C(F)(F)F)cc3)c2=O)cc1 [Example 112]
2 | 100 to 1000 | COc1ccc(-c2cc3cnc(NCC4CC4)nc3n(-c3ccccc3)c2=O)cc1 [Example 102]
3 | < 100 | CN(C)c1ccc(-n2c(=O)c(-c3ccc4nn(C)cc4c3)cc3ccc(OCC(F)(F)F)nc32)cn1 [Example 315]
4 | 100 to 1000 | COc1ccc(-c2cc3cnc(SC)nc3n(-c3ccc(OC)cc3)c2=O)cc1 [Example 113]
5 | < 100 | CCOc1ccc2cc(-c3ccc(OC(F)F)cc3)c(=O)n(-c3ccc(OC(F)F)cc3)c2n1 [Example 198]
6 | 100 to 1000 | CCOc1ccc2cc(-c3ccc(OC)cc3)c(=O)n(-c3ccc(OC(F)(F)F)nc3)c2n1 [Example 156]
7 | 1000 to 10000 | COc1ccc(-n2c(=O)c(-c3ccc4nncn4c3)cc3cnc(NCC(F)(F)F)nc32)cc1 [Example 182]
8 | < 100 | O=c1c(-c2ccc3nccn3c2)cc2cnc(NCC(F)(F)F)nc2n1-c1ccc(C2CC2)cc1 [Example 192]
9 | 1000 to 10000 | COc1ccc(-c2cc3cnc(S(C)(=O)=O)nc3n(-c3ccc(O)cc3)c2=O)cc1 [Example 105]
10 | < 100 | COc1ccc(-c2cc3ccc(NCC(F)(F)F)nc3n(-c3ccc(C4CC4)nc3)c2=O)cc1 [Example 134]
11 | < 100 | [2H]C([2H])([2H])Oc1ccc(-c2cc3ccc(NCC(F)(F)F)nc3n(-c3ccc(OC([2H])([2H])[2H])cc3)c2=O)cc1 [Example 306]
12 | < 100 | COc1ccc(-c2cc3cnc(NCC(F)(F)F)nc3n(-c3ccc4sccc4c3)c2=O)cc1 [Example 125, 8-(benzo[b]thiophen-5-yl)-6-(4-methoxyphenyl)-2-(2,2,2-trifluoroethylamino)pyrido[2,3-d]pyrimidin-7(8H)-one]
13 | 100 to 1000 | COc1ccc(-n2c(=O)c(-c3ccc4ncccc4c3)cc3cnc(SC)nc32)cc1 [Example 114]
14 | < 100 | [2H]C([2H])([2H])Nc1ccc(-n2c(=O)c(-c3ccc4nn(C)cc4c3)cc3ccc(OCC)nc32)cn1 [Example 146]
15 | < 100 | COc1ccc(-c2cc3ccc(NCC(F)(F)F)nc3n(-c3ccc(Cl)cc3)c2=O)cc1 [Example 133]
16 | 1000 to 10000 | COc1ccc(-c2cc3cnc(SC)nc3n(-c3ccc(C(F)(F)F)cc3)c2=O)cc1 [Example 111]
17 | < 100 | Cn1cc2cc(-c3nc4ccc(OCC(F)(F)F)nc4n(-c4ccc(Cl)cc4)c3=O)ccc2n1 [Example 339]
18 | 100 to 1000 | COc1ccc(-n2c(=O)c(-c3ccc(S(C)(=O)=O)cc3)cc3cnc(NCC(F)(F)F)nc32)cc1 [Example 179]
19 | < 100 | CCOc1ccc2cc(-c3ccc(OC)cc3)c(=O)n(-c3ccc(C(F)(F)F)cc3)c2n1 [Example 141]
20 | 100 to 1000 | CNC(=O)c1ccc(-c2cc3cnc(NCC(F)(F)F)nc3n(-c3ccc(OC)cc3)c2=O)cc1 [Example 170, 4-(8-(4-methoxyphenyl)-7-oxo-2-(2,2,2-trifluoroethylamino)-7,8-dihydropyrido[2,3-d]pyrimidin-6-yl)-N-methylbenzamide]
21 | < 100 | CCOc1ccc2cc(-c3ccc(OC)cc3)c(=O)n(-c3ccc(Cl)cc3)c2n1 [Example 154]
22 | < 100 | COc1ccc(-n2c(=O)c(-c3ccc4c(c3)C(C)(C)CO4)cc3cnc(NCC(F)(F)F)nc32)cc1 [Example 190]
23 | 100 to 1000 | COc1ccc(-n2c(=O)c(-c3ccc(OC)cn3)cc3cnc(NCC(F)(F)F)nc32)cc1 [Example 175]
24 | 100 to 1000 | COc1ccc(-c2cc3cnc(SC)nc3n(-c3ccc(Cl)cc3)c2=O)cc1 [Example 110]
25 | 1000 to 10000 | COc1ccc(-c2cc3cnc(S(C)(=O)=O)nc3n(-c3ccccc3)c2=O)cc1 [Example 104]
26 | 100 to 1000 | Cn1cc2cc(-c3nc4ccc(OCC(F)(F)F)nc4n(-c4ccc(N)nc4)c3=O)ccc2n1 [Example 350, 4-(6-aminopyridin-3-yl)-2-(2-methyl-2H-indazol-5-yl)-6-(2,2,2-trifluoroethoxy)pyrido[2,3-b]pyrazin-3(4H)-one]

Row | IC50 [nM] | Structure (SMILES)
27 | < 100 | CCOc1ccc2cc(-c3ccc(OC)cc3)c(=O)n(-c3ccc(C)nc3)c2n1 [Example 136, 7-ethoxy-3-(4-methoxyphenyl)-1-(6-methylpyridin-3-yl)-1,8-naphthyridin-2(1H)-one]
28 | < 100 | CCOc1ccc2cc(-c3ccc4nn(CC(C)(C)C)cc4c3)c(=O)n(-c3ccc(Cl)cc3)c2n1 [Example 211]
29 | < 100 | COc1ccc(-n2c(=O)c(-c3ccc4nn(CCO)cc4c3)cc3ccc(OCC(F)(F)F)nc32)cc1 [Example 323]
30 | < 100 | CCOc1ccc2cc(-c3ccc4nn(CC(C)(C)O)cc4c3)c(=O)n(-c3ccc(OC(F)(F)F)nc3)c2n1 [Example 212]
31 | 100 to 1000 | COc1ccc(-c2cc3cnc(NCC(F)(F)F)nc3n(-c3ccccc3)c2=O)cc1 [Example 103]
32 | 100 to 1000 | COc1ccc(-n2c(=O)c(-c3ccc(OC)c(F)c3)cc3cnc(NCC(F)(F)F)nc32)cc1 [Example 184]
33 | 100 to 1000 | COc1ccc(-n2c(=O)c(-c3ccc(OC)c(C)c3)cc3cnc(NCC(F)(F)F)nc32)cc1 [Example 178]
34 | < 100 | Cn1cc(-c2cc3cnc(NCC(F)(F)F)nc3n(-c3ccc(C4CC4)cc3)c2=O)ccc1=O [Example 193]
35 | < 100 | CCNc1ccc2nc(-c3ccc4nn(C)cc4c3)c(=O)n(-c3ccc(C)nc3)c2n1 [Example 337]
36 | 100 to 1000 | COc1ccc(-c2cc3cnc(NCC(F)(F)F)nc3n(-c3ccc4[nH]ccc4c3)c2=O)cc1 [Example 128]
37 | < 100 | CCNc1ccc2cc(-c3ccc4nn(C)cc4c3)c(=O)n(-c3ccc(N)nc3)c2n1 [Example 312]
38 | 100 to 1000 | COc1ccc(-c2cc3cnc(NCC(F)(F)F)nc3n(-c3ccc(C#N)cc3)c2=O)cc1 [Example 117]
39 | < 100 | Cn1cc2cc(-c3cc4ccc(NCC(F)(F)F)nc4n(-c4ccc(C5CC5)nc4)c3=O)ccc2n1 [Example 311]
40 | < 100 | CN(C)c1ccc(-n2c(=O)c(-c3ccc4nn(C)cc4c3)nc3ccc(OCC(F)(F)F)nc32)cn1 [Example 349, 4-(6-(dimethylamino)pyridin-3-yl)-2-(2-methyl-2H-indazol-5-yl)-6-(2,2,2-trifluoroethoxy)pyrido[2,3-b]pyrazin-3(4H)-one]
41 | 100 to 1000 | COc1ccc(-n2c(=O)c(-c3ccc4c(c3)OC(C)(C)O4)cc3cnc(NCC(F)(F)F)nc32)cc1 [Example 191]
42 | < 100 | CCOc1ccc2cc(-c3ccc(OCCN(C)C)cc3)c(=O)n(-c3ccc(OC(F)F)cc3)c2n1 [Example 206]
43 | < 100 | CCOc1ccc2cc(-c3ccc4nn(C)cc4c3)c(=O)n(-c3ccc(C)nc3)c2n1 [Example 137]
44 | < 100 | Cn1cc(-c2cc3cnc(NCC(F)(F)F)nc3n(-c3ccc(-c4cc[nH]n4)cc3)c2=O)ccc1=O [Example 234, 8-(4-(1H-pyrazol-5-yl)phenyl)-6-(1-methyl-6-oxo-1,6-dihydropyridin-3-yl)-2-(2,2,2-trifluoroethylamino)pyrido[2,3-d]pyrimidin-7(8H)-one]
45 | 100 to 1000 | COc1ccc(-c2cc3cnc(NCC(F)(F)F)nc3n(-c3ccc(OC(F)(F)F)cc3)c2=O)cc1 [Example 109]
46 | 100 to 1000 | COc1ccc(-n2c(=O)c(-c3ccncc3)cc3cnc(NCC(F)(F)F)nc32)cc1 [Example 181]
47 | < 100 | COc1ccc(-c2cc3cnc(NCC(F)(F)F)nc3n(-c3ccc(Cl)cc3)c2=O)cc1 [Example 126]
48 | < 100 | CCNc1ccc2nc(-c3ccc4nn(C)cc4c3)c(=O)n(-c3ccc(C4CC4)nc3)c2n1 [Example 336]
49 | 100 to 1000 | COc1ccc(-c2cc3cnc(NCC(F)(F)F)nc3n(-c3ccncc3)c2=O)cc1 [Example 107]
50 | < 100 | CCOc1ccc2cc(-c3ccc(OC)cc3)c(=O)n(-c3cnc(NC)nc3)c2n1 [Example 143]
51 | < 100 | COc1ccc(-c2cc3ccc(NCC(F)(F)F)nc3n(-c3ccc(C4CC4)cc3)c2=O)cc1 [Example 132]
52 | 1000 to 10000 | COc1ccc(-c2cc3cnc(SC)nc3n(-c3ccc(OC(F)(F)F)cc3)c2=O)cc1 [Example 108]
